According to US10112941B2, “Tricyclic compounds as anticancer agents” (BRISTOL-MYERS SQUIBB COMPANY, priority 2013, dated 2018):

Biological target: BRD4 (Homo sapiens, UniProt O60885)
Assay: Time Resolved Fluorescence Resonance Energy Transfer (TR-FRET) binding assay, BRD4
Settings: one of the FRET assays described; read-out: FRET BRD4 IC50

Compound | IC50 [nM]
Cc1nnc(C)n1-c1cnc2c3ccc(C(C)(C)O)cc3n(C(c3ccccc3)C3CCOCC3)c2c1 (stereo in doubt) [Example 357, 2-[3-(Dimethyl-4H-1,2,4-triazol-4-yl)-5-[(R)-oxan-4-yl(phenyl)methyl]-5H-pyrido[3,2-b]indol-7-yl]propan-2-ol] | < 5
Cc1nnn(C)c1-c1cnc2c3ccc(S(C)(=O)=O)cc3n([C@H](c3ccc(F)cc3)C3CCOCC3)c2c1 [Example 178, 5-{5-[(S)-(4-Fluorophenyl)(oxan-4-yl)methyl]-7-methanesulfonyl-5H-pyrido[3,2-b]indol-3-yl}-1,4-dimethyl-1H-1,2,3-triazole] | < 5
Cc1noc(C)c1-c1cnc2c3ccc(C(C)(C)O)c(F)c3n(C(c3ccc(F)cc3)C3CCOCC3)c2c1 (single isomer, unassigned) [Example 80, 2-[3-(Dimethyl-1,2-oxazol-4-yl)-6-fluoro-5-[(4-fluorophenyl)(oxan-4-yl)methyl]-5H-pyrido[3,2-b]indol-7-yl]propan-2-ol] | < 25
Cc1noc(C)c1-c1cnc2c3ccc(C(C)(C)O)cc3n([C@H](CCC(F)(F)F)c3cscn3)c2c1 [Example 19] | < 5
Cc1nnn(C)c1-c1cnc2c3ccc(C(C)(C)O)cc3n(C(c3ccc(F)cc3)C3CCC3)c2c1 (single isomer, unassigned) [Example 251, 2-{5-[Cyclobutyl(4-fluorophenyl)methyl]-3-(dimethyl-1H-1,2,3-triazol-5-yl)-5H-pyrido[3,2-b]indol-7-yl}propan-2-ol] | < 5
[2H]C([2H])([2H])c1nnn(C)c1-c1cnc2c3c(S(C)(=O)=O)cccc3n([C@H](c3ccccc3)C3CCOCC3)c2c1 [Example 268, 5-{9-Methanesulfonyl-5-[(S)-oxan-4-yl(phenyl)methyl]-5H-pyrido[3,2-b]indol-3-yl}-4-(^2H3)methyl-1-methyl-1H-1,2,3-triazole] | < 5
Cc1nnn(C)c1-c1cnc2c3ccc(C(C)(C)O)cc3n([C@H](c3ccccc3F)C3CCOCC3)c2c1 [Example 76] | < 5
COc1cc(F)c(C(C2CCOCC2)n2c3cc(C(C)(C)O)ccc3c3ncc(-c4c(C)nnn4C)cc32)cc1F (single isomer, unassigned) [Example 124, 2-{5-[(2,5-Difluoro-4-methoxyphenyl)(oxan-4-yl)methyl]-3-(dimethyl-1H-1,2,3-triazol-5-yl)-5H-pyrido[3,2-b]indol-7-yl}propan-2-ol] | < 5
[2H]C([2H])([2H])c1onc(C)c1-c1cnc2c3c(OC)ccc(S(=O)(=O)C([2H])([2H])[2H])c3n([C@H](c3ccccc3)C3CCOCC3)c2c1 [Example 193, 4-[6-(^2H3)Methanesulfonyl-9-methoxy-5-[(S)-oxan-4-yl(phenyl)methyl]-5H-pyrido[3,2-b]indol-3-yl]-5-(^2H3)methyl-3-methyl-1,2-oxazole] | < 5
Cn1nnc(C2CC2)c1-c1cnc2c3ccc(C(C)(C)O)cc3n([C@H](c3ccccc3)C3CCOCC3)c2c1 [Example 385, 2-[3-(4-Cyclopropyl-1-methyl-1H-1,2,3-triazol-5-yl)-5-[(S)-oxan-4-yl(phenyl)methyl]-5H-pyrido[3,2-b]indol-7-yl]propan-2-ol] | < 5
Cc1noc(C)c1-c1cnc2c3ccc(CC(C)(C)O)cc3n([C@H](c3ccccc3)C3CCOCC3)c2c1 [Example 252, 1-[3-(Dimethyl-1,2-oxazol-4-yl)-5-[(S)-oxan-4-yl(phenyl)methyl]-5H-pyrido[3,2-b]indol-7-yl]-2-methylpropan-2-ol] | < 5
Cc1nnn(C)c1-c1cnc2c3ccc(C(C)(O)C(F)(F)F)c(F)c3n([C@H](c3ccccc3)C3CCOCC3)c2c1 (single isomer, unassigned) [Example 441] | < 5
[2H]C([2H])([2H])c1nnn(C)c1-c1cnc2c3c(OC)cc(C(C)(C)O)cc3n([C@H](c3ccccc3)C3CCOCC3)c2c1 [Example 273, 2-{9-Methoxy-3-[4-(^2H3)methyl-1-methyl-1H-1,2,3-triazol-5-yl]-5-[(S)-oxan-4-yl(phenyl)methyl]-5H-pyrido[3,2-b]indol-7-yl}propan-2-ol] | < 5
Cc1noc(C)c1-c1cnc2c3ccc(C(C)(C)O)cc3n([C@H](c3ccccc3)C3CC3)c2c1 [Example 11] | < 25
Cn1nncc1-c1cnc2c3ccc(S(C)(=O)=O)cc3n([C@H](c3ccccc3)C3CCOCC3)c2c1 [Example 453, 5-{7-Methanesulfonyl-5-[(S)-oxan-4-yl(phenyl)methyl]-5H-pyrido[3,2-b]indol-3-yl}-1-methyl-1H-1,2,3-triazole] | < 5
[2H]C([2H])([2H])Oc1nnn(C([2H])([2H])[2H])c1-c1cnc2c3ccc(C(C)(C)O)cc3n([C@H](c3ccccc3)C3CCOCC3)c2c1 [Example 380, 2-{3-[4-(^2H3)Methoxy-1-(^2H3)methyl-1H-1,2,3-triazol-5-yl]-5-[(S)-oxan-4-yl(phenyl)methyl]-5H-pyrido[3,2-b]indol-7-yl}propan-2-ol] | < 5

Compound | IC50 [nM]
CNc1nnn(C)c1-c1cnc2c3ccc(C(C)(C)O)cc3n([C@H](c3ccccc3)C3CCOCC3)c2c1 [Example 390, 2-{3-[1-Methyl-4-(methylamino)-1H-1,2,3-triazol-5-yl]-5-[(S)-oxan-4-yl(phenyl)methyl]-5H-pyrido[3,2-b]indol-7-yl}propan-2-ol] | < 5
Cc1cc(C(C2CCOCC2)n2c3cc(C(C)(C)O)ccc3c3ncc(-c4c(C)nnn4C)cc32)n(C)n1 (single isomer, unassigned) [Example 341, 2-[3-(Dimethyl-1H-1,2,3-triazol-5-yl)-5-[(1,3-dimethyl-1H-pyrazol-5-yl)(oxan-4-yl)methyl]-5H-pyrido[3,2-b]indol-7-yl]propan-2-ol] | < 5
Cc1nnn(C)c1-c1cnc2c3ccc(C(C)(C)O)cc3n(C(c3cc(F)cc(F)c3)C3CCOCC3)c2c1 (single isomer, unassigned) [Example 98, 2-{5-[(3,5-Difluorophenyl)(oxan-4-yl)methyl]-3-(dimethyl-1H-1,2,3-triazol-5-yl)-5H-pyrido[3,2-b]indol-7-yl}propan-2-ol] | < 5
Cc1noc(C)c1-c1cnc2c3ccc(S(C)(=O)=O)cc3n(C(c3ccccc3)C3CCC(F)(F)CC3)c2c1 (single isomer, unassigned) [Example 154, 4-{5-[(4,4-Difluorocyclohexyl)(phenyl)methyl]-7-methanesulfonyl-5H-pyrido[3,2-b]indol-3-yl}-3,5-dimethyl-1,2-oxazole] | < 25
[2H]C([2H])([2H])c1nnn(C)c1-c1cnc2c3ccc(S(C)(=O)=O)cc3n(C(c3cc(C)on3)C3CCOCC3)c2c1 (stereo not shown) [Example 331, 5-{7-Methanesulfonyl-5-[(5-methyl-1,2-oxazol-3-yl)(oxan-4-yl)methyl]-5H-pyrido[3,2-b]indol-3-yl}-4-(^2H3)methyl-1-methyl-1H-1,2,3-triazole] | < 5
CCC(CC)n1c2cc(C(C)(C)O)ccc2c2ncc(-c3c(C)noc3C)cc21 [Example 4] | < 25
COCc1nnn(C)c1-c1cnc2c3ccc(C(C)(C)O)cc3n([C@H](c3ccccc3)C3CCOCC3)c2c1 [Example 89, 2-{3-[4-(Methoxymethyl)-1-methyl-1H-1,2,3-triazol-5-yl]-5-[(S)-oxan-4-yl(phenyl)methyl]-5H-pyrido[3,2-b]indol-7-yl}propan-2-ol] | < 25
[2H]C([2H])([2H])c1nnn(C)c1-c1cnc2c3c(OCC(C)(F)F)ccc(S(C)(=O)=O)c3n(C(c3ncccc3F)C3CCOCC3)c2c1 (stereo not shown) [Example 247, 2-{[9-(2,2-Difluoropropoxy)-6-methanesulfonyl-3-[4-(^2H3)methyl-1-methyl-1H-1,2,3-triazol-5-yl]-5H-pyrido[3,2-b]indol-5-yl](oxan-4-yl)methyl}-3-fluoropyridine] | < 5
Cc1noc(C)c1-c1cnc2c3ccc(S(C)(=O)=O)cc3n(C(CCC(F)(F)F)c3ccccc3)c2c1 (single isomer, unassigned) [Example 39, 4-[7-Methanesulfonyl-5-(4,4,4-trifluoro-1-phenylbutyl)-5H-pyrido[3,2-b]indol-3-yl]-3,5-dimethyl-1,2-oxazole] | < 1500
[2H]C([2H])([2H])c1nnn(C)c1-c1cnc2c3ccc(S(C)(=O)=O)cc3n(C(c3ccccc3)C3CCC(F)(F)CC3)c2c1 (stereo not shown) [Example 158, 5-{5-[(4,4-Difluorocyclohexyl)(phenyl)methyl]-7-methanesulfonyl-5H-pyrido[3,2-b]indol-3-yl}-4-(^2H3)methyl-1-methyl-1H-1,2,3-triazole] | < 5
Cc1nnn(C)c1-c1cnc2c3cccc(S(C)(=O)=O)c3n([C@@H](CCC(F)(F)F)c3ccccc3)c2c1 [Example 377, 5-{6-Methanesulfonyl-5-[(1S)-4,4,4-trifluoro-1-phenylbutyl]-5H-pyrido[3,2-b]indol-3-yl}-1,4-dimethyl-1H-1,2,3-triazole] | < 5
COc1ccc(S(C)(=O)=O)c2c1c1ncc(-c3c(C)noc3C)cc1n2[C@H](c1ccccc1)C1CCOCC1 [Example 185, 4-{6-Methanesulfonyl-9-methoxy-5-[(S)-oxan-4-yl(phenyl)methyl]-5H-pyrido[3,2-b]indol-3-yl}-3,5-dimethyl-1,2-oxazole] | < 5
[2H]C([2H])([2H])c1nnn(C)c1-c1cnc2c3c(S(C)(=O)=O)cc(OC)c(OC)c3n([C@H](c3ccccc3)C3CCOCC3)c2c1 [Example 162, 5-{9-Methanesulfonyl-6,7-dimethoxy-5-[(S)-oxan-4-yl(phenyl)methyl]-5H-pyrido[3,2-b]indol-3-yl}-4-(^2H3)methyl-1-methyl-1H-1,2,3-triazole] | < 5
[2H]C([2H])([2H])c1nnn(C)c1-c1cnc2c3c(NS(=O)(=O)CC(F)(F)F)ccc(S(C)(=O)=O)c3n([C@H](c3ccccc3)C3CCOCC3)c2c1 [Example 228, 2,2,2-Trifluoro-N-{6-methanesulfonyl-3-[4-(^2H3)methyl-1-methyl-1H-1,2,3-triazol-5-yl]-5-[(S)-oxan-4-yl(phenyl)methyl]-5H-pyrido[3,2-b]indol-9-yl}ethane-1-sulfonamide] | < 5
[2H]C([2H])([2H])c1nnn(C)c1-c1cnc2c3c(OCC)cc(S(C)(=O)=O)cc3n(C(c3ccccc3)C3CCC(F)(F)CC3)c2c1 [Example 210, 5-{5-[(S)-(4,4-Difluorocyclohexyl)(phenyl)methyl]-9-ethoxy-7-methanesulfonyl-5H-pyrido[3,2-b]indol-3-yl}-4-(^2H3)methyl-1-methyl-1H-1,2,3-triazole] | < 5
